In US20230012374A1, “PROCESS FOR PRODUCING HERBICIDE AND INTERMEDIATE THEREOF” (KUMIAI CHEMICAL INDUSTRY CO., LTD., priority 2019, published 2023):

Test: Bulk specific gravity of pyroxasulfone crystals
Assay type: physicochemical
Settings: crystal of pyroxasulfone

Cn1nc(C(F)(F)F)c(CS(=O)(=O)C2=NOC(C)(C)C2)c1OC(F)F [Comparative Example 3-1, 3-[(5-difluoromethoxy-1-methyl-3-trifluoromethylpyrazol-4-yl)methylsulfonyl]-4,5-dihydro-5,5-dimethylisoxazole]
bulk specific gravity: 0.53 g/mL

Cn1nc(C(F)(F)F)c(CS(=O)(=O)C2=NOC(C)(C)C2)c1OC(F)F [Example 3-1, 3-[(5-difluoromethoxy-1-methyl-3-trifluoromethylpyrazol-4-yl)methylsulfonyl]-4,5-dihydro-5,5-dimethylisoxazole]
bulk specific gravity: 1.04 g/mL
